# According to PMC10846865, “The Blood-Brain Barrier: Implications for Experimental Cancer Therapeutics” (Annual review of cancer biology, 2023):
# Key:
# [1] = system: newly diagnosed glioblastoma; design: method as in Gilbert et al. 2014; conditions: patients with newly diagnosed glioblastoma; ref Gilbert et al. 2014; cited from earlier work
# recurrent glioblastoma = conditions: cited from earlier work
# [2] = cited from earlier work
# [3] = Spatial drug imaging by MALDI-MSI (drug distribution in tissues); conditions: 10 mg/kg, 30'; DHB matrix; 12 µm-thick sections, MALDI MSI 12 Tesla FT-ICR, 100 µm spatial resolution; Agar Lab
# glioblastoma = system: glioblastoma; design: method as in Iorgulescu et al. 2021; conditions: preclinical studies, ref Iorgulescu et al. 2021; cited from earlier work
# PI3K pathway = system: PI3K pathway; design: method as in Wen et al. 2019b; conditions: ref Wen et al. 2019b, cited from earlier work
# [4] = cited from earlier work; remark: listed apart in the source
# [5] = design: method as in Mittapalli et al. 2013; conditions: ref Mittapalli et al. 2013; cited from earlier work
# CNS metastases = system: CNS metastases; design: method as in Long et al. 2012, Ng et al. 2022; conditions: ref Long et al. 2012, Ng et al. 2022; cited from earlier work
molecule,measurement,setting,value
bevacizumab,overall survival,[1],no difference
same,delivery of radiolabeled temozolomide as measured by PET imaging,recurrent glioblastoma; in vivo,decreased delivery of radiolabeled temozolomide
same,vascular permeability,recurrent glioblastoma; not told,decrease vascular permeability
CN(Cc1cnc2nc(N)nc(N)c2n1)c1ccc(C(=O)N[C@@H](CCC(=O)O)C(=O)O)cc1 [methotrexate],"therapeutic window, intrathecal treatment","[2]; intrathecal treatment of hematological malignancies, ref Kwong et al. 2009, Clement & Holle 2017",narrow therapeutic window
CNCc1ccc(-c2[nH]c3cc(F)cc4c3c2CCNC4=O)cc1 [Rucaparib],Drug detection on brain by MALDI or LESA,[3],Drug not detected on brain by MALDI or LESA
CC[C@]1(O)C[C@H]2CN(CCc3c([nH]c4ccccc34)[C@@](C(=O)OC)(c3cc4c(cc3OC)N(C=O)[C@H]3[C@@](O)(C(=O)OC)[C@H](OC(C)=O)[C@]5(CC)C=CCN6CC[C@]43[C@@H]65)C2)C1 [vincristine],toxicity of inadvertent administration into the CSF,"[2]; ref Dyer 2001, Chotsampancharoen et al. 2016",fatalities due to severe neurotoxicity
C[C@@H]1C[C@H]2[C@@H]3CCC4=CC(=O)C=C[C@]4(C)[C@@]3(F)[C@@H](O)C[C@]2(C)[C@@]1(O)C(=O)CO [dexamethasone],effect on clinical benefit of immune checkpoint blockade,glioblastoma,limit the clinical benefit of immune checkpoint blockade in glioblastoma in a dose-dependent manner
Nc1cc(C(F)(F)F)c(-c2cc(N3CCOCC3)nc(N3CCOCC3)n2)cn1 [buparlisib],inhibition of the PI3K pathway (molecular response),PI3K pathway; pharmacokinetic measures paired with molecular response,not potent enough to effectively inhibit the PI3K pathway
same,unbound tumor-to-plasma ratio,PI3K pathway,high
S=P(N1CC1)(N1CC1)N1CC1 [thiotepa],"Kp,uu (unbound drug levels in blood and cerebrospinal fluid)","[4]; blood vs cerebrospinal fluid, ref Heideman et al. 1989, 1993",~ 1
same,half-life,"[4]; rapidly metabolized, ref Heideman et al. 1989, 1993",less than 2 hours
same,dose-limiting toxicity,[4]; ref Dunkel et al. 1998,myelosuppression
same,apparent brain permeability (Papp),"[4]; ref Heideman et al. 1989, 1993",high
CC(C)(C)c1nc(-c2cccc(NS(=O)(=O)c3c(F)cccc3F)c2F)c(-c2ccnc(N)n2)s1 [dabrafenib],distribution across an intact BBB,[5],limited distribution across an intact BBB
same,response in patients with CNS metastases,CNS metastases,clinically significant response rates
